The results in this text go back to US20150291593A1, “NOVEL HETEROARYL AND HETEROCYCLE COMPOUNDS, COMPOSITIONS AND METHODS” (HUTCHISON MEDIPHARMA LIMITED, priority 2012, published 2015).

One assay deals with T1, p110δ/p85α (Homo sapiens, UniProt O00329).
T1 construct: purchased Invitrogen
Description: Transcreener KINASE Assay, kinase inhibition of p110δ/p85α. Format: biochemical. To be noted: read-out: PI3Kδ IC50. How it is done: (§1) PI3K kinases including p110α/p85α, p110δ/p85α and p110γ are purchased from Invitrogen, and p110β/p85α is from Millipore.
(§2) Primary screening data and IC50 values are measured using Transcreener™ KINASE Assay (Bellbrook, Catalog #3003-10K). […] It is a universal, homogenous, high throughput screening (HTS) technology using a far-red, competitive fluorescence polarization immunoassay based on the detection of ADP to monitor the activity of enzymes that catalyze group transfer reactions. Briefly, the Transcreener KINASE Assay is designed as a simple two-part, endpoint assay.
(§3) In the first step, the 25 ul kinase reaction is performed by preparing a reaction mixture containing 5 ul test compound (2% DMSO final concentration), 10 ul kinase, buffer (50 mM HEPES, 100 mM NaCl, 1 mM EGTA, 0.03% CHAPS, 3 mM MgCl2, and freshly supplemented 1 mM DTT), and 10 ul 30 uM PIP2/10 uM ATP. The plate is sealed and incubated for 80 min at room temperature. Next, 25 ul ADP detection mix is added per well. The plate is sealed again and incubated for 60 min at room temperature, and then measure fluorescence polarization by Tecan Infinite F500 Reader.
(§4) Data is analyzed and IC50s are generated using the add-in software for Microsoft Excel, Xlfit™ (version 2.0). IH %=(ADP amount under 2% DMSO-ADP amount under test compound)/ADP amount under 2% DMSO.

The next assay deals with T2, PI3Kγ (Mus musculus, UniProt Q9JHG7).
T2 construct: endogenous in cells; host or cells: Raw264.7 macrophage cells
In words: Acumen Assay - Raw264.7 p-AKT Assay (C5a stimulated). To be noted: Raw264.7 macrophage cells, compound 30 min, 10 nM C5a 5 min, p-AKT (Ser473) readout; read-out: PI3Kγ cell-C5a Raw264.7 IC50. Format: cell-based. The protocol:
Acumen® eX3 (A Mμltilaser Microplate Cytometer For Enhanced High Content Screening): TTP LabTech
3×10^4 Raw264.7 macrophage cells were seeded into 96-well plates with DMEM+10% heat-inactivated FBS at […], 90 ul/well, overnight. After starvation for 3 hr at 37° C. under 5% CO2, Raw264.7 cells were treated with 10 ul/well various concentrations of compound or 0.5% DMSO for 30 min, and then stimulated with 10 ul/well 10 nM C5a for 5 min.
1.) Cells were fixed 110 μL of 4% pre-warmed Paraformaldehyde (2% final), incubate for 45 min at room temperature.
2.) Remove paraformaldehyde solution. Add 100 μL of ice-cold 0.1% Triton X-100 in PBS and leave at 4° C. for 30 min.
3.) Wash once in 100 μL PBS.
4.) Incubate with 100 μL blocking buffer (1% BSA, in PBS) for 2 hours at room temperature.
5.) Wash once for 5 min with 100 ul PBS.
6.) Incubate with 40 μL 1:200 dilution of phospho AKT (Ser473) rabbit antibody in antibody dilution buffer (0.1% BSA, in PBS) overnight at 4° C.
7.) Wash for 3 times for 10 min with 100 ul PBS.
8.) Incubate for 90 min at room temperature with 50 μL of goat anti-rabbit Alex488 antibody at a 1:1,000 dilution in antibody dilution buffer (0.1% BSA, in PBS). Cover plate in foil to keep out of light.
9.) Wash for 3 times for 10 min with 100 μL PBS.
10.) Add 50 μL of 1.5 μM Propidium Iodide solution to each well to determine cell number at a 1:1,000 dilution in PBS (stock: 1.5 mM).
11.) Incubate at room temperature for 30 min.
12.) Seal the plate with a black cover-seal (supplied with plate).
13.) Load the plate into the Acumen Explorer and scan with the appropriate instrument settings.

The target in another assay is T3, p110β/p85α (Homo sapiens, UniProt P42338).
T3 construct: purchased Millipore
In words: Transcreener KINASE Assay, kinase inhibition of p110β/p85α. Format: biochemical. The settings on record: read-out: PI3Kβ IC50. How it is done:
as §1, §2, §3, §4

A further assay addresses T4, p110γ (Homo sapiens, UniProt P48736).
T4 construct: purchased Invitrogen
Description: Transcreener KINASE Assay, kinase inhibition of p110γ. Format: biochemical. To be noted: for IC50: read-out: PI3Kγ IC50. The protocol:
PI3K kinases including p110α/p85α, p110δ/p85α and p110γ are purchased from Invitrogen, and p110β/p85α is from Millipore. Primary screening data and IC50 values are measured using Transcreener™ KINASE Assay (Bellbrook, Catalog #3003-10K). […] It is a universal, homogenous, high throughput screening (HTS) technology using a far-red, competitive fluorescence polarization immunoassay based on the detection of ADP to monitor the activity of enzymes that catalyze group transfer reactions. Briefly, the Transcreener KINASE Assay is designed as a simple two-part, endpoint assay. […] The plate is sealed and incubated for 80 min at room temperature. Next, 25 ul ADP detection mix is added per well. The plate is sealed again and incubated for 60 min at room temperature, and then measure fluorescence polarization by Tecan Infinite F500 Reader. Data is analyzed and IC50s are generated using the add-in software for Microsoft Excel, Xlfit™ (version 2.0).

A further assay deals with T5, p110α/p85α (Homo sapiens, UniProt P42336).
T5 construct: purchased Invitrogen
In words: Transcreener KINASE Assay, kinase inhibition of p110α/p85α. Format: biochemical. To be noted: read-out: PI3Kα IC50. How it is done:
as §1, §2, §3, §4

T1 sequence (O00329 whole entry, species assumed): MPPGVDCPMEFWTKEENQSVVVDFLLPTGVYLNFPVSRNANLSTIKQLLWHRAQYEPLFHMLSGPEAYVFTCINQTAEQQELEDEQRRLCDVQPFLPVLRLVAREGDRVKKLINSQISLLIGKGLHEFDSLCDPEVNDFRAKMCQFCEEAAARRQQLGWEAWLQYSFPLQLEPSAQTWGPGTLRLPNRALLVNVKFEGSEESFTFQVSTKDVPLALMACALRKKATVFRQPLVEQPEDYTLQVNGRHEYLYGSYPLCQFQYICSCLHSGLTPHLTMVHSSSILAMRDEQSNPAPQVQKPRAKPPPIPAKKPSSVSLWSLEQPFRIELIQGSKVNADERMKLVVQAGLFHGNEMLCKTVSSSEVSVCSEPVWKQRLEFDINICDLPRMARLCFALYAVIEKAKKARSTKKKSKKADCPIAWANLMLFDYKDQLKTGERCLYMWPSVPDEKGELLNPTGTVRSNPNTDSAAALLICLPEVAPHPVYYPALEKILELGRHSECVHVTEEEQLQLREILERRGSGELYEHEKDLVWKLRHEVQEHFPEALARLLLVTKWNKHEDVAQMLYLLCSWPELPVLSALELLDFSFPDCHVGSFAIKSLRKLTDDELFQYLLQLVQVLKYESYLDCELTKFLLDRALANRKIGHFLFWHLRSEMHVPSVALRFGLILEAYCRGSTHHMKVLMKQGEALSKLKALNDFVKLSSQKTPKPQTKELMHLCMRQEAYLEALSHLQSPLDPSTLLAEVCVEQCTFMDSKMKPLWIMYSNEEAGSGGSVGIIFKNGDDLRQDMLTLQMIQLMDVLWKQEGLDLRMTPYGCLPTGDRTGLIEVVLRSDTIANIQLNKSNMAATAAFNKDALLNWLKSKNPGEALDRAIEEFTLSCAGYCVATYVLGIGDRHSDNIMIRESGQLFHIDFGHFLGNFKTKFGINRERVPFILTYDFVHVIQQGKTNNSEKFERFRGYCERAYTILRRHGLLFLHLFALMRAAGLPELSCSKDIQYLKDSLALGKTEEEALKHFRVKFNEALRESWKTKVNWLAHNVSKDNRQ
T1 sequence (P27986 whole entry partner, species assumed): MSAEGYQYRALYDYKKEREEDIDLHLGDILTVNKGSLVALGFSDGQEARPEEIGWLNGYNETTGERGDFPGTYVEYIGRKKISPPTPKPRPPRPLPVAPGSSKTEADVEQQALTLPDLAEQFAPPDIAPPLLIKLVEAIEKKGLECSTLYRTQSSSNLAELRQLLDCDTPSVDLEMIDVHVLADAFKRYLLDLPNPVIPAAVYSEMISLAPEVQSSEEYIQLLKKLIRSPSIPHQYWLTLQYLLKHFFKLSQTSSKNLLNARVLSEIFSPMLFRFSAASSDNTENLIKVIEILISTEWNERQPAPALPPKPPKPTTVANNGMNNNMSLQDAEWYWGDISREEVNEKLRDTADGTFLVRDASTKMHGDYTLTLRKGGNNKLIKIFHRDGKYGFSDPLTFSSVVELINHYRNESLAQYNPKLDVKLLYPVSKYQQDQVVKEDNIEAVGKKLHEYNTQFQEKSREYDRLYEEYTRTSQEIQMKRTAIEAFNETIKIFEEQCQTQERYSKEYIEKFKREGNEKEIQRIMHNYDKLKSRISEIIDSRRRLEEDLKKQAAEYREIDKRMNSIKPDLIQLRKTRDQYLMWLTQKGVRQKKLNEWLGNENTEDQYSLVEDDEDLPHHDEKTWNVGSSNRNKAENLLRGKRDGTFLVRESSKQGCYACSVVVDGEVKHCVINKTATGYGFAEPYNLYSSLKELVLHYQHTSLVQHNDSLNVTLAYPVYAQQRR
T3 sequence (P42338 whole entry, species assumed): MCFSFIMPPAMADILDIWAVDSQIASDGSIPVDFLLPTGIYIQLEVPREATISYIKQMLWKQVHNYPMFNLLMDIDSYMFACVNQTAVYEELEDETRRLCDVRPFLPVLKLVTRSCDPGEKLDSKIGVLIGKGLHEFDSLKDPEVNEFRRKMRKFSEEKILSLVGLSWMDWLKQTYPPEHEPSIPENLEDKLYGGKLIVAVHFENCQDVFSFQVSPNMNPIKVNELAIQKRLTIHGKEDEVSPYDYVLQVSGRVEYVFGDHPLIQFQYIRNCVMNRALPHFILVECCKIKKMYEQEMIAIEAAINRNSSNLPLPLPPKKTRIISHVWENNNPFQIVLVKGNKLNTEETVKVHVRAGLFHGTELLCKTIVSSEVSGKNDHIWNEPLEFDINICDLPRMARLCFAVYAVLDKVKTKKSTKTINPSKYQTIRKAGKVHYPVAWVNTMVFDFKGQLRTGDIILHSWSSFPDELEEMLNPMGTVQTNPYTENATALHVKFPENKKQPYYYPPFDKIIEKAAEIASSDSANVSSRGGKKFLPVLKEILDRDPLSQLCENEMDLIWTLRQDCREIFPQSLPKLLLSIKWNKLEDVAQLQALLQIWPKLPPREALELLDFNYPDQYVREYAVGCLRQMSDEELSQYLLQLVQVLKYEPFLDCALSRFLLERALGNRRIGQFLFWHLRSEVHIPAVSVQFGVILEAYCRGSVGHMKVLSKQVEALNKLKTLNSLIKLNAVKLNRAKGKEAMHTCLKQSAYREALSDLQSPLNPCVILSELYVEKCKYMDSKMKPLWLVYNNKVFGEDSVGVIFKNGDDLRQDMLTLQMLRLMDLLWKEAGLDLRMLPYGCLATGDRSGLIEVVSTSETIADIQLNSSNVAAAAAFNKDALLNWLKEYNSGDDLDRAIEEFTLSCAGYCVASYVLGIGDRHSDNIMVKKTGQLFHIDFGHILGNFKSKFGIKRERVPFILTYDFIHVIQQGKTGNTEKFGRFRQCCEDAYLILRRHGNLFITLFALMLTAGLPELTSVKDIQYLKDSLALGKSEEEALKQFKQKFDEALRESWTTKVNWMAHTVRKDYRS
T3 sequence (P27986 whole entry partner, species assumed): as the sequence (P27986 whole entry partner, species assumed) above
T2 sequence (Q9JHG7 whole entry): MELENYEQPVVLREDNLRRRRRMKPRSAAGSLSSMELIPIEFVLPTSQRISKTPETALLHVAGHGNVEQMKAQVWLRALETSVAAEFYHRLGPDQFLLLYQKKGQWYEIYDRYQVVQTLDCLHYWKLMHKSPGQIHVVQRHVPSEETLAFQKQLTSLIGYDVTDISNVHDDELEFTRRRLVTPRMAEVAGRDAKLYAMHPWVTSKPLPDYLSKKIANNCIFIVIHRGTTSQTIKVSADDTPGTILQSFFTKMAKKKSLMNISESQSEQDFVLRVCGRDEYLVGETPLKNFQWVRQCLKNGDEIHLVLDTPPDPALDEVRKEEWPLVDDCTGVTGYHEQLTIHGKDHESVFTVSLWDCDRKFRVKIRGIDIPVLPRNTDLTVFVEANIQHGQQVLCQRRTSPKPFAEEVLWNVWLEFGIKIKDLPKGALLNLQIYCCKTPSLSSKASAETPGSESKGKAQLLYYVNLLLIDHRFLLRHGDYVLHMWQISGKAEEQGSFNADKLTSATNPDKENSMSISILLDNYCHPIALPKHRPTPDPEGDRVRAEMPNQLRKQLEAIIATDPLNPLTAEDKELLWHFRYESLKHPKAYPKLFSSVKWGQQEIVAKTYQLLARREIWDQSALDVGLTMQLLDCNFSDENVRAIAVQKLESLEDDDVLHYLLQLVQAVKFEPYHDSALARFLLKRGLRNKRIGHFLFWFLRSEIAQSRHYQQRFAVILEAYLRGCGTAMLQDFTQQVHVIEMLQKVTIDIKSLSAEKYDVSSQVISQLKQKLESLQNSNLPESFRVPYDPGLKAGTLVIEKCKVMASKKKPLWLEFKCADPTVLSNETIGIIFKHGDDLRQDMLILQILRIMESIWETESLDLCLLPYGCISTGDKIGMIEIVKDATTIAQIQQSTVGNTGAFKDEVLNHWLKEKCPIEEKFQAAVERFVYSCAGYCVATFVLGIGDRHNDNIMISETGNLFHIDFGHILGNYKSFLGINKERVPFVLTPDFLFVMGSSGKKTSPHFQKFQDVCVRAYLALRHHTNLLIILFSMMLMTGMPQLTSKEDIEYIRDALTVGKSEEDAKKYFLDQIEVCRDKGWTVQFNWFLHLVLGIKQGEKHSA
T4 sequence (P48736 whole entry, species assumed): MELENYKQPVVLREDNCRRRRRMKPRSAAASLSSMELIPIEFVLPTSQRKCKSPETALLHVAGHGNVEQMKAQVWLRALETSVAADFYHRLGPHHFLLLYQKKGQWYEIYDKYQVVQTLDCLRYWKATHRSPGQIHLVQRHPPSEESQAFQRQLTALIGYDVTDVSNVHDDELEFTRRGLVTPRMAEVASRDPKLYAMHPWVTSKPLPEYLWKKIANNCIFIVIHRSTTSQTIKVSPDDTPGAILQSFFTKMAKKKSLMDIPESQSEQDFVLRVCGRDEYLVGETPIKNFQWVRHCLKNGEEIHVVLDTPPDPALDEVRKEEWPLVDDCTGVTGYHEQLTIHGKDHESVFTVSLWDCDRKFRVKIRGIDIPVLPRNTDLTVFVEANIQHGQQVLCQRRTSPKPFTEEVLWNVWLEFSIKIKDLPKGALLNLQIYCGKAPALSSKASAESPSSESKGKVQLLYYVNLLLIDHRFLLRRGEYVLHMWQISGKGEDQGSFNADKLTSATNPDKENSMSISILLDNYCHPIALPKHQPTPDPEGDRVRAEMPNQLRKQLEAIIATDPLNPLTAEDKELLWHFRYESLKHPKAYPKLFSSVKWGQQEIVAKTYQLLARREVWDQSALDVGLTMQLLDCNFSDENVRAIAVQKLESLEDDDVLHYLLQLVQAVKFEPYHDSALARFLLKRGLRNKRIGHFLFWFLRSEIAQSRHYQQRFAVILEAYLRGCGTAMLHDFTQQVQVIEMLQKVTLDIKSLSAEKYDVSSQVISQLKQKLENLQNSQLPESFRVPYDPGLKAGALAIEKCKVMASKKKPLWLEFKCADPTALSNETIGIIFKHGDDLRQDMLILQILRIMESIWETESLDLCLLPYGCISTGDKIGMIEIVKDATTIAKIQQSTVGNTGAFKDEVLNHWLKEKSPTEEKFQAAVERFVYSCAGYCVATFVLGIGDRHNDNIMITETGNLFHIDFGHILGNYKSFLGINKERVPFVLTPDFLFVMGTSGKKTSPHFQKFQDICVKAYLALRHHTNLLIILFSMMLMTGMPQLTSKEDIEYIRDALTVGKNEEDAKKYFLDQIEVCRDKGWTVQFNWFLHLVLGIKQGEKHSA

As to `CC(Nc1nc(N)nc2c1C(=O)CCN2)c1cn2ccc(F)c2c(=O)n1-c1ccccc1` (single isomer, unassigned) [Compound 407], the 50% inhibitory concentration (IC50) (usually the concentration that inhibits the measured activity by half) on p110δ/p85α turned out to be 1 nM; on PI3Kγ, 63 nM; at p110β/p85α it was 68 nM; at p110γ, 2 nM.
With `CC(Nc1nc(N)ncc1C#N)c1cn2ccc(F)c2c(=O)n1-c1ccccc1` (single isomer, unassigned) [Compound 449], the IC50 on p110δ/p85α came out at 1 nM; on PI3Kγ, 87 nM; on p110β/p85α, 45 nM; on p110γ, 4 nM.
As to `CC(Nc1ncnc2[nH]cc(F)c12)c1cc2ncc(Cl)n2c(=O)n1-c1ccccc1` (single isomer, unassigned) [Compound 450], the IC50 at p110δ/p85α is 0.4 nM; on PI3Kγ, 72 nM; at p110β/p85α, 42 nM; on p110γ, 17 nM.
With `O=c1c2c(F)ccn2nc([C@@H]2CCCN2c2ncnc3[nH]cnc23)n1-c1cccc(F)c1` [Compound 191], the IC50 at PI3Kγ amounted to 54 nM.
As for `CC(=O)c1cnc(N)nc1N1C[C@H](C)[C@H]1c1nn2ccc(Cl)c2c(=O)n1-c1ccc(F)cc1` [Compound 206], at PI3Kγ, the IC50 was 5 nM.
With `N#Cc1cnc(N)nc1N1CCC[C@H]1c1nn2ccc(Cl)c2c(=O)n1-c1ccccc1` [Compound 207], on PI3Kγ, the IC50 worked out at 22 nM.
For the molecule `N#Cc1cnc(N)nc1N1CC[C@H]1c1nn2ccc(Cl)c2c(=O)n1-c1ccccc1` [Compound 212], at p110α/p85α, the IC50 is > 1000 nM.
Consider `N#Cc1c[nH]c2ncnc(N3C[C@@H](F)C[C@H]3c3nn4ccc(Cl)c4c(=O)n3-c3cccc(F)c3)c12` [Compound 213], for which the IC50 on PI3Kγ is 2 nM.
`O=c1c2c(Cl)ccn2nc([C@@H]2C[C@H](F)CN2c2ncnc3[nH]cnc23)n1-c1cccc(F)c1` [Compound 214]: the IC50 on PI3Kγ was determined as 15 nM.
As for `CC(=O)c1c[nH]c2ncnc(N3CCC[C@H]3c3nn4ccc(F)c4c(=O)n3-c3ccccc3)c12` [Compound 218], at PI3Kγ, the IC50 worked out at 42 nM.
The same measure, in the same setting: with `N#Cc1cnc(N)nc1N1C[C@@H](F)C[C@H]1c1nn2ccc(Cl)c2c(=O)n1-c1ccccc1` [Compound 229] the figure was 11 nM; with `N#Cc1cnc(N)nc1N1CCC[C@H]1c1nn2ccc(Cl)c2c(=O)n1-c1ccc(F)cc1` [Compound 231], 15 nM.
Still for that read-out and setting: the result for `N#Cc1cnc(N)nc1N1CCC[C@H]1c1nn2ccc(Cl)c2c(=O)n1-c1cccc(F)c1` [Compound 232] reads 44 nM.
Regarding `C[C@H]1CCN(c2nc(N)ncc2C#N)C1c1nn2ccc(Cl)c2c(=O)n1-c1ccccc1` (stereo partly drawn) [Compound 236], the IC50 on p110δ/p85α amounted to 2 nM; on PI3Kγ, 46 nM; at p110β/p85α, 81 nM; at p110γ, 4 nM.
Take `Nc1nc2c(c(N3CC[C@H]3c3nn4ccc(Cl)c4c(=O)n3-c3ccccc3)n1)C(=O)CCN2` [Compound 241]: the IC50 at PI3Kγ was 22 nM.
The same measure, in the same setting: the result for `Nc1nc2c(c(N3CCC[C@H]3c3nn4ccc(Cl)c4c(=O)n3-c3ccccc3)n1)C(=O)CCN2` [Compound 242] reads 21 nM.
For `CC(=O)c1c[nH]c2ncnc(N3C[C@@H](F)C[C@H]3c3nn4ccc(Cl)c4c(=O)n3-c3ccccc3)c12` [Compound 268], on PI3Kγ, the IC50 was found to be 19 nM. The “PI3Kγ IH % @ 1 uM” value on p110γ (@ 1 uM) is 100%.
In the case of `CC(Nc1ncnc2[nH]cc(F)c12)c1cn2ccc(Cl)c2c(=O)n1-c1ccccc1` (stereo not drawn) [Compound 270], the IC50 at PI3Kγ worked out at 65 nM.
Still for that read-out and setting: with `CC(=O)c1c[nH]c2ncnc(NC(C)c3cn4ccc(Cl)c4c(=O)n3-c3ccccc3)c12` (stereo not drawn) [Compound 272] the figure was 36 nM.
The same measure, in the same setting: the result for `CC(=O)c1cnc(N)nc1NC(C)c1cn2ccc(Cl)c2c(=O)n1-c1ccccc1` (stereo not drawn) [Compound 273] reads 3 nM; that for `Cc1nc(N)nc(N2CC[C@H]2c2nn3ccc(Cl)c3c(=O)n2-c2ccccc2)c1C#N` [Compound 283], 3 nM; that for `CC(Nc1ncnc2[nH]cc(F)c12)c1cc2ncc(Cl)n2c(=O)n1-c1ccccc1` (stereo not drawn) [Compound 285], 46 nM.
As to `CC(=O)c1cnc(N)nc1NC(C)c1cc2ncc(Cl)n2c(=O)n1-c1ccccc1` (stereo not drawn) [Compound 288], the IC50 on PI3Kγ was found to be 43 nM.
Still for that read-out and setting: with `CC(=O)c1cnc(N)nc1N1CC[C@H]1c1nn2ccc(Cl)c2c(=O)n1-c1ccccc1` [Compound 299] the figure was 6 nM; with `CC(=O)c1cnc(N)nc1N1CC[C@H]1c1nn2ccc(Cl)c2c(=O)n1-c1ccc(F)cc1` [Compound 302], 43 nM.
For the molecule `O=c1c2c(Cl)ccn2nc([C@@H]2CCCN2c2ncnc3[nH]cnc23)n1-c1ccccn1` [Compound 311], the IC50 at p110δ/p85α is < 0.5 nM; on PI3Kγ, 54 nM.
As for `CC(=O)c1cnc(N)nc1N1CCCC1c1cn2ccc(Cl)c2c(=O)n1-c1ccccc1` (stereo not drawn) [Compound 321], the IC50 on PI3Kγ was found to be 9 nM.
On the same count and under the same terms, with `CC(=O)c1cnc(N)nc1N1CC[C@H]1c1nn2ccc(F)c2c(=O)n1-c1ccccc1` [Compound 323] the figure was 80 nM; with `CC(=O)c1cnc(N)nc1N1C[C@H](C)[C@H]1c1nn2ccc(F)c2c(=O)n1-c1ccccc1` [Compound 324], 63 nM.
In the case of `Nc1ncc(C(=O)C(F)(F)F)c(N2CC[C@H]2c2nn3ccc(Cl)c3c(=O)n2-c2ccccc2)n1` [Compound 325], the results for the IC50 at PI3Kγ and at p110β/p85α were 80 nM and > 1000 nM, respectively.
Turning to `CC(=O)c1c[nH]c2ncnc(N3CCC[C@H]3c3nn4ccc(Cl)c4c(=O)n3-c3ccccn3)c12` [Compound 340], the IC50 at PI3Kγ came to 45 nM.
As to `N#Cc1cnc(N)nc1N1C[C@@H](C#N)C[C@H]1c1nn2ccc(Cl)c2c(=O)n1-c1ccccc1` [Compound 351], the IC50 at PI3Kγ is 5 nM.
Same read-out and setting: the result for `N#Cc1c[nH]c2ncnc(N3CCCC3c3cn4ccc(Cl)c4c(=O)n3-c3ccccc3)c12` (stereo not drawn) [Compound 364] reads 6 nM; that for `CC(=O)c1cnc(N)nc1N1CCC[C@H]1c1nn2ccc(Cl)c2c(=O)n1-c1ccccc1` [Compound 369, (S)-2-(1-(5-acetyl-2-aminopyrimidin-4-yl)pyrrolidin-2-yl)-5-chloro-3-phenylpyrrolo[2,1-f][1,2,4]triazin-4(3H)-one], 22 nM.
Regarding `N#Cc1c[nH]c2ncnc(N3CC(=O)C[C@H]3c3nn4ccc(Cl)c4c(=O)n3-c3ccccc3)c12` [Compound 380, (S)-4-(2-(5-chloro-4-oxo-3-phenyl-3,4-dihydropyrrolo[2,1-f][1,2,4]triazin-2-yl)-4-oxopyrrolidin-1-yl)-7H-pyrrolo[2,3-d]pyrimidine-5-carbonitrile], the IC50 at PI3Kγ was determined as 19 nM.
In the case of `N#Cc1cnc(N)nc1N1CC(=O)C[C@H]1c1nn2ccc(Cl)c2c(=O)n1-c1ccccc1` [Compound 403], the IC50 at PI3Kγ amounted to 11 nM.
